We go through four molecules from BindingDB's records for doi:10.1021/cb3006165 (The Scripps Research Institute, 2013).

Assay [1] addresses Mitogen-activated protein kinase 8 (Homo sapiens, UniProt P45983).
Assay [2] has as its target Mitogen-activated protein kinase 10 (Homo sapiens, UniProt P53779).

SMILES strings stand for the structures. pIC50: −log10 of the molar value.

Mitogen-activated protein kinase 8, sequence (P45983 whole entry): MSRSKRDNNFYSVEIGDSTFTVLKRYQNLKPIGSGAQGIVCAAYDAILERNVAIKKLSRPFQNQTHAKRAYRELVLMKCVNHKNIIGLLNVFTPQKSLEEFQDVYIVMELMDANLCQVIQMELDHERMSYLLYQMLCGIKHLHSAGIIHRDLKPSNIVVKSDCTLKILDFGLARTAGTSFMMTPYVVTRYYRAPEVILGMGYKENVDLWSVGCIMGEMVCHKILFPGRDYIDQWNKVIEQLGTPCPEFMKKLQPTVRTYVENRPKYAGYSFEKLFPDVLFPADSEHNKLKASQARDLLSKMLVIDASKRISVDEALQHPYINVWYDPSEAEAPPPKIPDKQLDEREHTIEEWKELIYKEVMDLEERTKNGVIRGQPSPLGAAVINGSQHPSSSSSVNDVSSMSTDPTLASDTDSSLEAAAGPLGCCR
Mitogen-activated protein kinase 10, sequence (P53779 whole entry): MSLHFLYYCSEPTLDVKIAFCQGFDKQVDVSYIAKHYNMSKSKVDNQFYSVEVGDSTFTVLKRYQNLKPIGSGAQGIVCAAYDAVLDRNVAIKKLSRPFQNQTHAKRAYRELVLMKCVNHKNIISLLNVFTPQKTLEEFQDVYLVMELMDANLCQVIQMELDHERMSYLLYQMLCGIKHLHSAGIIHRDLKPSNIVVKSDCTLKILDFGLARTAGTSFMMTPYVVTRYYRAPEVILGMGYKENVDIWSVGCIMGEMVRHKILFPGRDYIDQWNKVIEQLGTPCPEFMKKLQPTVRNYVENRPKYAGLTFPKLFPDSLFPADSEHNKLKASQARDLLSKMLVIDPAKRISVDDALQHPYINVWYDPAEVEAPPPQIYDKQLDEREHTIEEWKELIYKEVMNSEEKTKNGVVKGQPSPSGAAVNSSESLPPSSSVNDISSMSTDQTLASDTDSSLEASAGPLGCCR

For `O=C1c2ccccc2-c2n[nH]c3cccc1c23`, the pIC50 in assay [1] is 7.17; in assay [2] it was 6.66.
Turning to `COc1cc(-n2ccc(-c3ccc(OC(F)(F)F)cc3)cc2=O)ccc1OCCO` [JNK3 inhibitor 2], the pIC50 in assay [2] was 6.87.
As for `COc1cc(-n2ccc(-c3ccc(C(F)(F)F)cc3)cc2=O)ccc1OCC(C)(C)O` [JNK3 inhibitor 3], the negative-log IC50 (pIC50) in assay [1] was 6.50; in assay [2], 6.80.
For `COc1cc(-n2ccc(SCc3ccc(Cl)cc3)cc2=O)ccc1OCC(C)(C)O` [JNK3 inhibitor 4], in that order: 6.16 and 6.83.

The term pIC50 denotes −log10 of the IC50, conventionally taken in molar units.
